According to US7094909B2, “HIV protease inhibitors, compositions containing the same, their pharmaceutical uses and materials for their synthesis” (priority 2001, dated 2006):
Read-outs that look alike come from different tables or passages of the source.

Columns and labels:
[1] = target: T1, HIV-1 protease (Q7S mutant form) (Human immunodeficiency virus type 1 group M subtype B, UniProt P04585, Q495S); assay: HIV-1 Protease RET assay; type: biochemical; details: Ave. Ki (nM), RET assay, Q7S enzyme, Morrison tight binding fit
T1 construct: made in house
Summary of the method: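 Ki values fitted with the Morrison tight-binding equation from steady-state RET cleavage (ex 340, em 490 nm) of 5 μM RE(EDANS)SQNYPIVQK(DABCYL)R. Buffer pH 4.8 acetate, 1M NaCl, 5 mM DTT, 1 mg/ml BSA, 10% DMSO; 2 nM Q7S mutant dimer, 37 °C, 12 min.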

[2] = tested on: HIV-1 NL4-3 or HIV-1 NL4-3(I84V/L90M); assay: Susceptibility assay, p24 ELISA in infected MT-2 cells; type: cell-based; details: Human immunodeficiency virus 1, NL43, MT2, read-out: EC50 or IC50 (mM), values without asterisk (EC50)
Protocol: T-cell lines, CEM-SS, and MT-2, and viruses HIV-1 RF and HIV-1 NL4-3 (pNL4-3) were obtained from the National Institutes of Health (AIDS Research and Reference Reagent Program, Bethesda, Md.).
Compounds were tested in phenotypic susceptibility assays at Virologic, Inc., (See Petropoulos C. J., Parkin N. T., Limoli K. L., Lie Y. S., Wrin T., Huang W., Tian H., Smith D., Winslow G. A., Capon D J, Whitcomb J M. 2000, “A novel phenotypic drug susceptibility assay for human immunodeficiency virus type 1,” Antimicrob Agents Chemother 44(4):920–928) or using the assay described here. MT-2 cells were infected with either HIV-1 NL4-3 or HIV-1 NL4-3([…]) and incubated in the presence of serial 0.5 log dilutions of test compounds. Three days later, culture supernatants were collected and virus production, as determined by p24 ELISA, was assayed. Percent inhibition was calculated as p24 concentration in compound-treated samples as compared to infected, compound-free controls. Inhibition of viral replication is determined by measuring reduction in HIV p24 present in the culture supernatant, using a Beckman-Coulter p24HIV-1 Ag EIA kit and following the supplied protocol. Absorbance is read on a MRX microplate reader (Dynex Technologies). The EC50 was calculated as the concentration of compound that effected a decrease in the p24 production by infected, compound-treated cells to 50% of that produced by infected, compound-free cells.

[3] = tested on: HIV-1 (HIV-1 RF, HIV-1 NL4-3) in CEM-SS / MT-2 cells; assay: Cytopathic effect (CPE) inhibition assay (XTT/MTT dye reduction); type: cell-based
Summary of the method: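 Readout is XTT reduction (A450, 4 h) after six days of culturing virus-infected (moi 0.025–0.819) or mock-infected CEM-SS/MT-2 cells, 2×10^4 per well, with half-log compound series. Antiviral EC50 and cytotoxic CC50 are relative to uninfected compound-free cells. Therapeutic index is CC50 divided by EC50.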

[4] = Human immunodeficiency virus 1, NL43, read-out: Ave CPE EC50

Cc1c(O)cccc1C(=O)N[C@@H](Cc1ccccc1)[C@H](O)C(=O)N1CC(F)(F)C[C@H]1C(=O)N[C@@H]1C=CCCC1 [Example C4, (S)-4,4-Difluoro-1-((2S,3S)-2-hydroxy-3-{[1-(3-hydroxy-2-methyl-phenyl)-methanoyl]-amino}-4-phenyl-butanoyl)-pyrrolidine-2-carboxylic acid (S)-cyclohex-2-enylamide]
Ki [1]: 0.17 nM
EC50 [2]: 1900 nM
EC50 [3, 4]: 236 nM

Cc1c(F)cccc1CNC(=O)[C@@H]1CC(F)(F)CN1C(=O)[C@@H](O)[C@H](Cc1ccccc1)NC(=O)c1cccc(O)c1C [Example C5, (S)-4,4-Difluoro-1-((2S,3S)-2-hydroxy-3-{[1-(3-hydroxy-2-methyl-phenyl)-methanoyl]-amino}-4phenyl-butanoyl)-pyrrolidine-2-carboxylic acid 3-fluoro-2-methyl-benzylamide]
Ki [1]: 0.6 nM
EC50 [2]: 1610 nM
EC50 [3, 4]: 669 nM

Cc1ccc(F)cc1CNC(=O)[C@@H]1CC(F)(F)CN1C(=O)[C@@H](O)[C@H](Cc1ccccc1)NC(=O)c1cccc(O)c1C [Example C6, (S)-4,4-Difluoro-1-((2S,3S)-2-hydroxy-3-{[1-(3-hydroxy-2-methyl-phenyl)-methanoyl]-amino}-4-phenyl-butanoyl)-pyrrolidine-2-carboxylic acid 5-fluoro-2-methyl-benzylamide]
Ki [1]: 2.4 nM
EC50 [2]: 1940 nM
EC50 [3, 4]: 744 nM

C/C=C(\C)CNC(=O)[C@@H]1CC(F)(F)CN1C(=O)[C@@H](O)[C@H](Cc1ccccc1)NC(=O)c1cccc(O)c1C [Example C8, (S)-4,4-Difluoro-1-((2S,3S)-2-hydroxy-3-{[1-(3-hydroxy-2-methyl-phenyl)-methanoyl]-amino}-4-phenyl-butanoyl)-pyrrolidine-2-carboxylic acid ((E)-2-methyl-but-2-enyl)-amide]
Ki [1]: 1.5 nM
EC50 [2]: 1420 nM
EC50 ([3]; Human immunodeficiency virus 1, NL43, read-out: Ave CPE EC50 (mM)): 152 nM

Cc1ccccc1CNC(=O)[C@H]1N(C(=O)[C@@H](O)[C@H](Cc2ccccc2)NC(=O)c2cccc(O)c2C)CC(F)(F)C1(C)C [Example C15, (S)-4,4-Difluoro-1-[(2S,3S)-2-hydroxy-3-(3-hydroxy-2-methyl-benzoylamino)-4-phenyl-butyryl]-3,3-dimethyl-pyrrolidine-2-carboxylic acid 2-methyl-benzylamide]
Ki [1]: < 0.1 nM
EC50 [2]: 57 nM
EC50 [3, 4]: 25 nM

Cc1c(O)cccc1C(=O)N[C@@H](Cc1ccccc1)[C@H](O)C(=O)N1CC(F)(F)C(C)(C)[C@H]1C(=O)N[C@H]1CCc2ccccc21 [Example C16, (S)-4,4-Difluoro-1-[(2S,3S)-2-hydroxy-3-(3-hydroxy-2-methyl-benzoylamino)-4-phenyl-butyryl]-3,3-dimethyl-pyrrolidine-2-carboxylic acid (S)-indan-1-ylamide]
Ki [1]: < 0.1 nM
EC50 [2]: 201 nM
EC50 [3, 4]: 19 nM

C#CCNC(=O)[C@H]1N(C(=O)[C@@H](O)[C@H](Cc2ccccc2)NC(=O)c2cccc(O)c2C)CC(F)(F)C1(C)C [Example C17, (S)-4,4-Difluoro-1-[(2S,3S)-2-hydroxy-3-(3-hydroxy-2-methyl-benzoylamino)-4-phenyl-butyryl]-3,3-dimethyl-pyrrolidine-2-carboxylic acid prop-2-ynylamide]
Ki [1]: < 0.1 nM
EC50 [2]: 186 nM
EC50 [3, 4]: 115 nM

Cc1c(O)cccc1C(=O)N[C@@H](Cc1ccccc1)[C@H](O)C(=O)N1CC(F)(F)C(C)(C)[C@H]1C(=O)NCc1ccc(F)cc1Cl [Example C18, (S)-4,4-Difluoro-1-((2S,3S)-2-hydroxy-3-{[1-(3-hydroxy-2-methyl-phenyl)-methanoyl]-amino}-4-phenyl-butanoyl)-3,3-dimethyl-pyrrolidine-2-carboxylic acid 2-chloro-4-fluoro-benzylamide]
Ki [1]: < 0.1 nM
EC50 [2]: 618 nM
EC50 [3, 4]: 148 nM

CCCNC(=O)[C@H]1N(C(=O)[C@@H](O)[C@H](Cc2ccccc2)NC(=O)c2cccc(O)c2C)CC(F)(F)C1(C)C [Example C19, (S)-4,4-Difluoro-1-((2S,3S)-2-hydroxy-3-{[1-(3-hydroxy-2-methyl-phenyl)-methanoyl]-amino}-4-phenyl-butanoyl)-3,3-dimethyl-pyrrolidine-2-carboxylic acid propylamide]
Ki [1]: < 0.1 nM
EC50 [2]: 84 nM
EC50 [3, 4]: 55 nM

Cc1c(O)cccc1C(=O)N[C@@H](Cc1ccccc1)[C@H](O)C(=O)N1CC(F)(F)C(C)(C)[C@H]1C(=O)NCC(C)C [Example C21, 4,4-Difluoro-1-[2-hydroxy-3-(3-hydroxy-2-methyl-benzoylamino)-4-phenyl-butyryl]-3,3-dimethyl-pyrrolidine-2-carboxylic acid isobutyl-amide]
Ki [1]: < 0.1 nM
EC50 [2]: 81 nM
EC50 [3, 4]: 15 nM

Cc1c(O)cccc1C(=O)N[C@@H](Cc1ccccc1)[C@H](O)C(=O)N1CC(F)(F)C(C)(C)[C@H]1C(=O)NCc1cccs1 [Example C22, (S)-4,4-Difluoro-1-[(2S,3S)-2-hydroxy-3-(3-hydroxy-2-methyl-benzoylamino)-4-phenyl-butyryl]-3,3-dimethyl-pyrrolidine-2-carboxylic acid (thiophen-2-ylmethyl)-amide]
Ki [1]: < 0.1 nM
EC50 [2]: 62 nM
EC50 [3, 4]: 15 nM

Cc1c(O)cccc1C(=O)N[C@@H](Cc1ccccc1)[C@H](O)C(=O)N1CC(F)(F)C(C)(C)[C@H]1C(=O)NCC(F)(F)F [Example C23, (S)-4,4-Difluoro-1-[(2S,3S)-2-hydroxy-3-(3-hydroxy-2-methyl-benzoylamino)-4-phenyl-butyryl]-3,3-dimethyl-pyrrolidine-2-carboxylic acid (2,2,2-trifluoro-ethyl)-amide]
Ki [1]: < 0.1 nM
EC50 [2]: 109 nM
EC50 [3, 4]: 37 nM

Cc1c(O)cccc1C(=O)N[C@@H](Cc1ccccc1)[C@H](O)C(=O)N1CC(F)(F)C(C)(C)[C@H]1C(=O)N[C@H]1CCOc2ccccc21 [Example C24, (S)-4,4-Difluoro-1-[(2S,3S)-2-hydroxy-3-(3-hydroxy-2-methyl-benzoylamino)-4-phenyl-butyryl]-3,3-dimethyl-pyrrolidine-2-carboxylic acid (S)-1-benzopyran-4-y]
Ki [1]: < 0.1 nM
EC50 [2]: 74 nM
EC50 [3, 4]: 19 nM

COc1ccc(CNC(=O)[C@H]2N(C(=O)[C@@H](O)[C@H](Cc3ccccc3)NC(=O)c3cccc(O)c3C)CC(F)(F)C2(C)C)cc1 [Example C25, (S)-4,4-Difluoro-1-[(2S,3S)-2-hydroxy-3-(3-hydroxy-2-methyl-benzoylamino)-4-phenyl-butyryl]-3,3-dimethyl-pyrrolidine-2-carboxylic acid 4-methoxy-benzylamide]
Ki [1]: < 0.1 nM
EC50 [2]: 68 nM
EC50 [3, 4]: 31 nM

Cc1c(O)cccc1C(=O)N[C@@H](Cc1ccccc1)[C@H](O)C(=O)N1CC(F)(F)C(C)(C)[C@H]1C(=O)NCc1ccc2c(c1)OCO2 [Example C26, (S)-4,4-Difluoro-1-[(2S,3S)-2-hydroxy-3-(3-hydroxy-2-methyl-benzoylamino)-4-phenyl-butyryl]-3,3-dimethyl-pyrrolidine-2-carboxylic acid (1,3-benzodioxol-5-ylmethyl)-amide]
Ki [1]: < 0.1 nM
EC50 [2]: 131 nM
EC50 [3, 4]: 76 nM

Cc1c(O)cccc1C(=O)N[C@@H](Cc1ccccc1)[C@H](O)C(=O)N1COC(C)(C)[C@H]1C(=O)N[C@H]1CCc2ccccc21 [Example C27, (S)-3-((2S,3S)-2-Hydroxy-3-{[1-(3-hydroxy-2-methyl-phenyl)-methanoyl]-amino}-4-phenyl-butanoyl)-5,5-dimethyl-oxazolidine-4-carboxylic acid (S)-indan-1-ylamide]
Ki [1]: 0.13 nM
EC50 [2]: 189 nM
EC50 [3, 4]: 115 nM

Cc1c(O)cccc1C(=O)N[C@@H](Cc1ccccc1)[C@H](O)C(=O)N1COC(C)(C)[C@H]1C(=O)N[C@@H]1C=CCCC1 [Example C29, (S)-3-((2S,3S)-2-Hydroxy-3-{[1-(3-hydroxy-2-methyl-phenyl)-methanoyl]-amino}-4-phenyl-butanoyl)-5,5-dimethyl-oxazolidine-4-carboxylic acid (S)-cyclohex-2-enylamide]
Ki [1]: 0.18 nM
EC50 [2]: 1360 nM
EC50 [3, 4]: 142 nM
